Common to all, as to type: cell-based
The test system of one assay is K562 cells. Kind of assay: K562 cell proliferation inhibition, CCK-8. As to conditions: Homo sapiens, 96 h, K562, 4 days, Table 12, positive control dBET6. As for the experimental part: The complete medium required for K562 cells is IMDM (ATCC, Product number: 30-2005) basal medium containing 10% fetal bovine serum. K562 cells were seeded in a 96-well plate at a density of 7,500 cells/well, and different concentrations of the compound of the present invention and positive control samples Alisertib (source: Bide Pharmaceuticals) and dBET6 (source: Bide Pharmaceuticals) were prepared to treat the cells. The cells were incubated at a 37° C., 5% CO2 cell culture incubator for 4 days.
Cell viability was detected using the CCK-8 kit (Beyotime, Product number: C0040) according to the manufacturer's instructions. According to the inhibition rate, GraphPad Prism software was used to calculate the IC50 value of each compound for 4 days, and the results are shown in Table 11-12.

The test system of a further assay is LNCaP FGC cells. Kind of assay: LNCaP FGC cell proliferation inhibition, CCK-8. As to conditions: Homo sapiens, 96 h, 4 days. From the text: The complete medium required for LNCaP FGC cells is RPMI 1640 (ATCC, Product number: 30-2001) basal medium containing 10% fetal calf serum. […] Cell viability was detected using the CCK-8 kit (Beyotime, Product number: C0040) according to the manufacturer's instructions.

The subject of another assay is VCaP cells. Kind of assay: VCaP cell proliferation inhibition, CCK-8. The note with it: Homo sapiens, 168 h, 7 days. From the text:
The complete medium required for VCaP cells is DMEM high glucose (Gibco, Product number: 11995-065) basal medium containing 10% fetal bovine serum. […] Cell viability was detected using the CCK-8 kit (Beyotime, Product number: C0040) according to the manufacturer's instructions.

Drawing on patent US20250129088A1, “CEREBLON E3 UBIQUITIN LIGASE INHIBITOR” (Gan & Lee Pharmaceuticals Co., Ltd., priority 2022, published 2025), this text covers IC50 for 19 compounds.

Structures are written as SMILES.

`Cc1nc(Nc2ncc(C(=O)Nc3c(C)cccc3Cl)s2)cc(N2CCN(CCOCCC(=O)N3CCC4(CC3)COc3cc5c(cc3O4)CN(C3CCC(=O)NC3=O)C5=O)CC2)n1` (stereo not drawn) [PROTAC 15, N-(2-chloro-6-methylphenyl)-2-((6-(4-(2-(3-(7′-(2,6-dioxopiperidin-3-yl)-6′-oxo-7′,8′-dihydro-3′H,6′H-spiro[piperidine-4,2′-[1,4]dioxino[2,3-f]isoindol]-1-yl)-3-oxopropoxy)ethyl)piperazin-1-yl)-2-methylpyrimidin-4-yl)amino)thiazole-5-carboxamide] yielded an IC50 with K562 cells of 5 nM.
With `CC1(C)C(=O)N(c2ccc(C#N)c(C(F)(F)F)c2)C(=S)N1c1ccc(C(=O)N2CC3(CC(N4CCC5(CCc6cc7c(cc6O5)C(=O)N(C5CCC(=O)NC5=O)C7=O)CC4)C3)C2)c(F)c1` (stereo not drawn) [PROTAC 85, 4-(3-(4-(6-(7′-(2,6-dioxopiperidin-3-yl)-6′,8′-dioxo-4′,6′,7′,8′-tetrahydro-3′H-spiro[piperidin-4,2′-pyrano[2,3-f]isoindol]-1-yl)-2-azaspiro[3.3]heptane-2-carbonyl)-3-fluorophenyl)-4,4-dimethyl-5-oxo-2-thioimidazolidin-1-yl)-2-(trifluoromethyl)benzonitrile], the values for the IC50 in the assay with LNCaP FGC cells and with VCaP cells were 27.9 µM and 620 nM, respectively.
For `CC1(C)C(=O)N(c2ccc(C#N)c(C(F)(F)F)c2)C(=S)N1c1ccc(C(=O)N2CCC(F)(CN3CC4(CCc5cc6c(cc5O4)C(=O)N(C4CCC(=O)NC4=O)C6)C3)CC2)c(F)c1` (stereo not drawn) [PROTAC 68] the same measures were 3.86 µM and 30 nM.
The corresponding values for `CC1(C)C(=O)N(c2ccc(C#N)c(C(F)(F)F)c2)C(=S)N1c1ccc(C(=O)N2CCC3(CCC(N4CCC5(CC4)COc4cc6c(cc4C5)C(=O)N(C4CCC(=O)NC4=O)C6=O)CC3)C2)c(F)c1` (stereo not drawn) [PROTAC 74, 4-(3-(4-(8-(7′-(2,6-dioxopiperidin-3-yl)-6′ 8′-dioxo-4′,6′,7′,8′-tetrahydro-2′H-spiro[piperidin-4,3′-pyrano[2,3-f]isoindol]-1-yl)-2-azaspiro[4.5]decane-2-carbonyl)-3-fluorophenyl)-4,4-dimethyl-5-oxo-2-thioimidazolidin-1-yl)-2-(trifluoromethyl)benzonitrile] are 2.66 µM and 3260 nM.
As to `CC1(C)C(=O)N(c2ccc(C#N)c(C(F)(F)F)c2)C(=S)N1c1ccc(C(=O)N2CCC3(CCC(N4CCC5(CCc6cc7c(cc6O5)C(=O)N(C5CCC(=O)NC5=O)C7=O)CC4)CC3)CC2)c(F)c1` (stereo not drawn) [PROTAC 83, 4-(3-(4-(9-(7′-(2,6-dioxopiperidin-3-yl)-6′,8′-dioxo-4′,6′,7′,8′-tetrahydro-3′H-spiro[piperidine-4,2′-pyrano[2,3-f]isoindol]-1-yl)-3-azaspiro[5.5]undecane-3-carbonyl)-3-fluorophenyl)-4,4-dimethyl-5-oxo-2-thioimidazolidin-1-yl)-2-(trifluoromethyl)benzonitrile], the IC50 turned out to be 2.63 µM with LNCaP FGC cells and 890 nM with VCaP cells.
In the case of `N#Cc1ccc(O[C@H]2CC[C@H](NC(=O)c3ccc(N4CCC(CN5CCC6(CC5)COc5cc7c(cc5O6)CN(C5CCC(=O)NC5=O)C7=O)CC4)nn3)CC2)cc1Cl` (stereo partly drawn) [PROTAC 65], the IC50 with LNCaP FGC cells was 2.37 µM; in the assay on VCaP cells it was 1.1 nM.
On to `Cc1nc(Nc2ncc(C(=O)Nc3c(C)cccc3Cl)s2)cc(N2CCN(CCOCCC(=O)N3CC4(CCc5cc6c(cc5O4)C(=O)N(C4CCC(=O)NC4=O)C6=O)C3)CC2)n1` (stereo not drawn) [PROTAC 11, N-(2-chloro-6-methylphenyl)-2-((6-(4-(2-(3-(7′-(2,6-dioxopiperidin-3-yl)-6′,8′-dioxo-4′,6′,7′,8′-tetrahydro-3′H-spiro[azetidine-3,2′-pyrano[2,3-f]isoindol]-1-yl)-3-oxopropoxy)ethyl)piperazin-1-yl)-2-methylpyrimidin-4-yl)amino)thiazole-5-carboxamide], for which, in the assay with K562 cells, it took 66 nM to reach half-maximal inhibition (IC50).
On to `CC1(C)C(=O)N(c2ccc(C#N)c(C(F)(F)F)c2)C(=S)N1c1ccc(C(=O)N2CCC(CN3CCC4(CC3)COc3cc5c(cc3C4)C(=O)N(C3CCC(=O)NC3=O)C5=O)CC2)c(F)c1` (stereo not drawn) [PROTAC 69], for which the IC50 came out at 3.39 µM in the assay on LNCaP FGC cells and 4260 nM in the assay on VCaP cells.
For `CC1(C)C(=O)N(c2ccc(C#N)c(C(F)(F)F)c2)C(=S)N1c1ccc(C(=O)N2CC[C@@H](CN3CCC4(CC3)COc3cc5c(cc3C4)C(=O)N(C3CCC(=O)NC3=O)C5=O)C2)c(F)c1` (stereo partly drawn) [PROTAC 70, 4-(3-(4-((3S)-3-((7′-(2,6-dioxopiperidin-3-yl)-6′,8′-dioxo-4′,6′,7′,8′-tetrahydro-2′H-spiro[piperidine-4,3′-pyrano[2,3-f]isoindole]-1-yl)methyl)pyrrolidine-1-carbonyl)-3-fluorophenyl)-4,4-dimethyl-5-oxo-2-thioimidazolidin-1-yl)-2-(trifluoromethyl)benzonitrile] the same measures were 7.06 µM and 9730 nM.
`N#Cc1ccc(O[C@H]2CC[C@H](NC(=O)c3ccc(N4CC(N5CCC6(CCc7cc8c(cc7O6)CN(C6CCC(=O)NC6=O)C8=O)CC5)C4)nn3)CC2)cc1Cl` (stereo partly drawn) [PROTAC 62]: the IC50 in the assay with LNCaP FGC cells was 1.16 µM; in the assay on VCaP cells, 100 nM.
Turning to `N#Cc1ccc(O[C@H]2CC[C@H](NC(=O)c3ccc(N4CC(N5CCC6(CC5)Cc5cc7c(cc5O6)C(=O)N(C5CCC(=O)NC5=O)C7=O)C4)nn3)CC2)cc1Cl` (stereo partly drawn) [PROTAC 67, N-((1r,4r)-4-(3-chloro-4-cyanophenoxy)cyclohexyl)-6-(3-(6-(2,6-dioxypiperidin-3-yl)-5,7-dioxo-3,5,6,7-tetrahydrospiro[furo[2,3-f]isoindole-2,4′-piperidin]-1′-yl)azetidin-1-yl)pyridazine-3-carboxamide], the IC50 came out at 6.1 µM with LNCaP FGC cells and 6500 nM in the assay with VCaP cells.
For `CC1(C)C(=O)N(c2ccc(C#N)c(C(F)(F)F)c2)C(=S)N1c1ccc(C(=O)N2CC(N3CC4(CCc5cc6c(cc5O4)C(=O)N(C4CCC(=O)NC4=O)C6=O)C3)C2)c(F)c1` (stereo not drawn) [PROTAC 77, 4-(3-(4-(3-(7′-(2,6-dioxopiperidin-3-yl)-6′,8′-dioxo-4′,6′,7′,8′-tetrahydro-3′H-spiro [azetidine-3,2′-pyrano[2,3-f]isoindole]-1-yl)azetidine-1-carbonyl)-3-fluorophenyl)-4,4-dimethyl-5-oxo-2-thioimidazolidin-1-yl)-2-(trifluoromethyl)benzonitrile], the half-inhibitory concentration (IC50) came to 6.45 µM in the assay on LNCaP FGC cells and 2030 nM in the assay with VCaP cells.
Regarding `CC1(C)C(=O)N(c2ccc(C#N)c(C(F)(F)F)c2)C(=S)N1c1ccc(C(=O)N2CCC(N3CCC4(CC3)COc3cc5c(cc34)C(=O)N(C3CCC(=O)NC3=O)C5=O)CC2)c(F)c1` (stereo not drawn) [PROTAC 80, 4-(3-(4-(4-(6-(2,6-dioxopiperidin-3-yl)-5,7-dioxo-6,7-dihydro-2H,5H-spiro[furo[2,3-f]isoindole-3,4′-piperidin]-1′-yl)piperidine-1-carbonyl)-3-fluorophenyl)-4,4-dimethyl-5-oxo-2-thioimidazolidin-1-yl)-2-(trifluoromethyl)benzonitrile], the IC50 in the assay with LNCaP FGC cells amounted to 3.24 µM; in the assay with VCaP cells it was 9480 nM.
Turning to `N#Cc1ccc(O[C@H]2CC[C@H](NC(=O)c3ccc(N4CCC5(CC4)CC(N4CCC6(CCc7cc8c(cc7O6)C(=O)N(C6CCC(=O)NC6=O)C8=O)CC4)C5)nn3)CC2)cc1Cl` (stereo partly drawn) [PROTAC 61], the IC50 in the assay with LNCaP FGC cells stood at 2.2 µM; in the assay on VCaP cells, 80 nM.
On to `COC1(CN2CC3(COc4cc5c(cc4C3)C(=O)N(C3CCC(=O)NC3=O)C5=O)C2)CCN(C(=O)c2ccc(N3C(=S)N(c4ccc(C#N)c(C(F)(F)F)c4)C(=O)C3(C)C)cc2F)CC1` (stereo not drawn) [PROTAC 75], for which the IC50 in the assay on LNCaP FGC cells worked out at 0.53 µM; in the assay on VCaP cells it was 170 nM.
`COC1(CN2CC3(CCc4cc5c(cc4O3)CN(C3CCC(=O)NC3=O)C5=O)C2)CCN(C(=O)c2ccc(N3C(=S)N(c4ccc(C#N)c(C(F)(F)F)c4)C(=O)C3(C)C)cc2F)CC1` (stereo not drawn) [PROTAC 76]: the IC50 in the assay with LNCaP FGC cells was 3.24 µM; in the assay with VCaP cells it was 350 nM.
As for `N#Cc1ccc(O[C@H]2CC[C@H](NC(=O)c3ccc(N4CCC(CN5CC6(CCc7cc8c(cc7O6)C(=O)N(C6CCC(=O)NC6=O)C8=O)C5)CC4)nn3)CC2)cc1Cl` (stereo partly drawn) [PROTAC 60], the IC50 in the assay with LNCaP FGC cells turned out to be 0.93 µM; with VCaP cells, 1200 nM.
For the compound `CC1(C)C(=O)N(c2ccc(C#N)c(C(F)(F)F)c2)C(=S)N1c1ccc(C(=O)N2CC3(CCC(N4CCC5(CC4)COc4cc6c(cc4C5)C(=O)N(C4CCC(=O)NC4=O)C6=O)CC3)C2)c(F)c1` (stereo not drawn) [PROTAC 73, 4-(3-(4-(7-(7′-(2,6-dioxopiperidin-3-yl)-6′,8′-dioxo-4′,6′,7′,8′-tetrahydro-2′H-spiro[piperidin-4,3′-pyrano[2,3-f]isoindol]-1-yl)-2-azaspiro[3.5]nonane-2-carbonyl)-3-fluorophenyl)-4,4-dimethyl-5-oxo-2-thioimidazolidin-1-yl)-2-(trifluoromethyl)benzonitrile], the IC50 was 4.53 µM in the assay with LNCaP FGC cells and 2490 nM in the assay on VCaP cells.
In the case of `N#Cc1ccc(O[C@H]2CC[C@H](NC(=O)c3ccc(N4CCC(CN5CCC6(CC5)Cc5cc7c(cc5O6)C(=O)N(C5CCC(=O)NC5=O)C7=O)CC4)nn3)CC2)cc1Cl` (stereo partly drawn) [PROTAC 66, N-((1r,4r)-4-(3-chloro-4-cyanophenoxy)cyclohexyl)-6-(4-((6-(2,6-dioxopiperidine-3-yl)-5,7-dioxo-3,5,6,7-tetrahydrospiro[furo[2,3-f]isoindole-2,4′-piperidinyl]-1′-yl)methyl)piperidin-1-yl) pyridazine-3-carboxamide], the IC50 in the assay with LNCaP FGC cells came out at 3 µM; with VCaP cells, 50 nM.
